Measurements from US12433896B2, “Deuterated analogs of etifoxine, their derivatives and uses thereof” (GABA Therapeutics Inc., priority 2015, dated 2025).
Where a name gives a salt, the structure may show the parent alone. Each block holds one compound with its values, some of them ahead of it.

Assays:
[1] = pharmacokinetics in male Sprague-Dawley rats after oral gavage; type: in vivo; conditions: PO 50 mg/kg; for Cmax / AUC(0-t): rat, male Sprague-Dawley rats, plasma, average N=3, 70/30 Saline/PEG400; for AUC(0-t): read-out: AUC0-12
Protocol: Compounds were evaluated for pharmacokinetic profiles in male Sprague-Dawley rats at Shanghai Chempartner, Shanghai, China. Etifoxine hydrochloride and the hydrochloride salt of the compound described in example 1 were dosed to Sprague-Dawley rats via oral gavage (PO). Each compound was administered at a dose of 50 mg/kg to three rats (N=3 rats/compound; total 6 rats in the study). Each compound was formulated in 70/30 Saline/PEG400 at a concentration of 5 mg/mL (10 mL/kg injection volume/rat). Blood samples were collected from each rat at 10, 20, 30, 45 minutes and 1, 2,4 and 12 hours post-dose. Blood samples were put on ice and centrifugated to obtain plasma. Plasma samples were analyzed for concentrations of the dosed compound at each time point by LC-MS/MS using an AB-Sciex API-400 mass spectrometer. The lower limit of quantitation of each compound was 1 ng/mL. Pharmacokinetic parameters were determined by non-compartmental analysis using WinNonlin 6.2 software.

[2] = liver human microsomes stability study; type: in vitro ADME; conditions: for half-life at 0.1 μM: human, liver microsomes
Protocol: (§1) Compounds were evaluated for liver microsome metabolic stability at Eurofins/Cerep (St. Charles, MO). […] Test compounds at a concentration of 0.1 μM were incubated for up to 60 minutes in duplicate. The microsomal protein concentration was 0.1 mg/mL. The parent compound was detected by HPLC-MS/MS analysis. The percent compound remaining was calculated by comparing the peak area of the parent compound at each time point to time zero. Half-life was estimated from the slope of the initial linear range of the logarithmic curve of parent compound remaining vs. time, assuming first order kinetics. The apparent intrinsic clearance was further calculated from the half-life value for assays with microsomes.

[3] = rat liver microsomes stability study; type: in vitro ADME; conditions: for half-life at 0.1 μM: rat, liver microsomes
Protocol: as §1

[4] = cited from earlier work
[5] = rats, relative to etifoxine hydrochloride
[6] = human liver microsomes, 0.1 μM compound, 0.1 mg/mL microsomal protein, up to 60 minutes, read-out: Half-life (minutes) Experiment 1
[7] = 0.1 μM compound, 0.1 mg/mL microsomal protein, up to 60 minutes, read-out: Half-life (minutes) Experiment 2
[8] = same conditions, different lot of human liver microsomes, read-out: average half-life

Structure (SMILES): [2H]C([2H])([2H])C([2H])([2H])NC1=Nc2ccc(Cl)cc2C(C)(c2ccccc2)O1 (stereo not drawn) [Example 1 hydrochloride, 6-chloro-N-(ethyl-d5)-4-methyl-4-phenyl-4H-3,1-benzoxazin-2-amine]
- AUC0-12 greater than etifoxine hydrochloride [1, 5]: 2.5 times
- Cmax greater than etifoxine hydrochloride [1, 5]: 1.7 times
- Cmax [1]: 1930 ng/mL
- AUC(0-t) [1]: 8340 ng·h/mL

- Cmax [1]: 1140 ng/mL
- AUC(0-t) [1]: 3380 ng·h/mL
Structure (SMILES): CCNC1=Nc2ccc(Cl)cc2C(C)(c2ccccc2)O1 (stereo not drawn) [Etifoxine hydrochloride, 6-chloro-2-(ethylamino)-4-methyl-4-phenyl-4H-3,1-benzoxazine, reference compound]

Structure (SMILES): [2H]C([2H])([2H])C([2H])([2H])NC1=Nc2ccc(Cl)cc2C(C)(c2ccccc2)O1 (stereo not drawn) [Example 1, 6-chloro-N-(ethyl-d5)-4-methyl-4-phenyl-4H-3,1-benzoxazin-2-amine]
- half-life longer than that of etifoxine ([2]; human liver microsomes, relative to etifoxine): about 86%
- half-life at 0.1 μM [2, 6]: 39.7 min
- half-life at 0.1 μM ([2]; human liver microsomes, 0.1 μM compound, 0.1 mg/mL microsomal protein, up to 60 minutes, read-out: Half-life (minutes) Experiment 2): 41.8 min
- half-life at 0.1 μM ([2]; human liver microsomes, average of experiments 1 and 2, read-out: Half-life (minutes) Average): 41 min
- half-life at 0.1 μM ([3]; 0.1 μM compound, 0.1 mg/mL microsomal protein, up to 60 minutes, read-out: Half-life (minutes) Experiment 1): 13.8 min
- half-life at 0.1 μM [3, 7]: 13.8 min
- half-life at 0.1 μM ([3]; average of experiments 1 and 2, read-out: Half-life (minutes) Average): 14 min
- half-life longer than that of etifoxine ([3]; relative to etifoxine): about 75%

- half-life at 0.1 μM [2, 8]: 18 min
Structure (SMILES): [2H]C([2H])([2H])C1(c2ccccc2)OC(NCC)=Nc2ccc(Cl)cc21 (stereo not drawn) [Example 7, 6-chloro-N-ethyl-4-(methyl-d3)-4-phenyl-4H-3,1-benzoxazin-2-amine]

- half-life at 0.1 μM [2, 8]: 18 min
Structure (SMILES): [2H]c1c([2H])c([2H])c(C2(C)OC(NCC)=Nc3ccc(Cl)cc32)c([2H])c1[2H] (stereo not drawn) [Example 6, 6-chloro-N-ethyl-4-methyl-4-(phenyl-d5)-4H-3,1-benzoxazin-2-amine]

- Half-life (minutes) Experiment 2 ([2]; human liver microsomes, 0.1 μM compound, 0.1 mg/mL microsomal protein, up to 60 minutes): 21.9 min
- half-life at 0.1 μM [2, 6]: 23 min
- Half-life (minutes) Experiment 1 ([3]; 0.1 μM compound, 0.1 mg/mL microsomal protein, up to 60 minutes): 7.7 min
- half-life at 0.1 μM [3, 7]: 7.4 min
Structure (SMILES): CCNC1=Nc2ccc(Cl)cc2C(C)(c2ccccc2)O1 (stereo not drawn) [Etifoxine, 6-chloro-2-(ethylamino)-4-methyl-4-phenyl-4H-3,1-benzoxazine]
- half-life in humans [4]: 240 to 360 min
